Experimental data published in US20210386792A1, “A METHOD FOR INCREASING POPULATION OF SPERMATOGONIAL STEM CELLS” (priority 2018, published 2021).

Key:
EGR-1 [1] = assay: Western blot of EGR-1 expression in TECs; assay type: cell-based, mouse; settings: TEC
Text: (§1) FIG. 5. GDNF expression in TECs is regulated by CaN-NFAT signaling. a. Immunouorescence images of testis sections immunostained with the stem cell markers DDX4 and Oct4 and DAPI to stain DNA. Testes were harvested from 1-week-old or 4-week-old Euploid or Ts65Dn mice. Quantication of DDX4+ and Oct4+ cells relative to DAPI per high-powered eld (HPF) is shown on the right, ***P<0.0001. Bar=50 μm. Two-way ANOVA test. b. […] Values are mean±s.e.m. n=4. c. Quantication of GDNF levels by ELISA in conditioned media from murine TECs, LuEC and LiEC after 2 ngml-1 FGF-2 treatment in the presence or absence of CsA. Values are mean±s.e.m., n=4. d. H&E-stained cross-sections from testes of age-matched Euploid, Ts65Dn or Ts65Dn mice 5 weeks after implantation with GFP+ TECs isolated from syngeneic wild-type mice (Ts65Dn+GFP+ TECs). Red dotted line encircles mature sperm (yellow arrow) in the lumen of the seminiferous tubules. Immunouorescence images with GFP and DAPI to stain DNA of testis sections from Ts65Dn+GFP+TECs mice. e. Western blot analysis of EGR-1 protein expression in TECs and LuECs untreated or after FGF-2 treatment, expression of constitutively active NFATc1 (caNFATc1) or an empty vector control. Actin was probed as a loading control. f. Quantication of nuclear translocation of EGR1 and NFATc1 in TECs after treatment with conditioned media (CM), 2 ng ml-1 FGF-2±CsA. Values are mean±s.e.m. g. […]

C-iPS EC = assay: GDNF ELISA in conditioned media from control iPS-derived ECs; assay type: cell-based, human; settings: 2 ng/ml FGF-2
Description: (§2) Testis, lung, or liver ECs were plated (10,000 cells ml^−1) on 12 well dishes coated with 0.1% gelatin and cultured for 24 hours. Conditioned media was harvested at 24 and 48 hours after FGF-2 (2 ng ml^−1, 20 ng ml^−1 and 50 ng ml^−1) treatment and analyzed by ELISA for GDNF (Promega GDNF Emax immunoassay system, #G7621) following the manufacturer's instruction. Statistics was analyzed using Graph Pad Prism. For quantification of Gdnf mRNA, total RNA was isolated from the cells using Direct-zol RNA MiniPrep (Zymo Research) and reverse transcribed using High Capacity cDNA Reverse Transcription Kit (Appliedbiosystems), according to the manufacturer's instructions. All gene expression levels were normalized to GAPDH mRNA levels.
(§3) To generate iPSC lines, either human fibroblasts/stromal cells were transduced with pMXs-based retroviral supernatant with human OCT4, SOX2, KLF4, or MYC as described^30, or mononuclear cells were infected with pHage2-CMV-RTTA-W and pHage-Tet-hSTEMMCA-loxP virus as described^31. All cells were culture on 0.1% gelatin-coated dishes in human endothelial cell medium (Lonza; EGM®-MV Bulletkit) with 50 ng ml^−1 additional VEGF. 500,000 disaggregated single embryonic bodies from human iPSCs were cultured for 48 hours. Non-adherent cells were gently removed and adherent cells were cultured for 1-2 passages. […]

Thy1.2+GFP+ SSCs = assay: Colony formation of GFP+ SSCs co-cultured with TECs with added growth factors; assay type: cell-based, mouse; settings: Thy1.2+GFP+ cells co-cultured with TECs, factors added to growth media
Description: 2D co-cultures were generated by plating 2.7×10^5 cultured GFP^+ SSCs on STO feeder cells 28 or on top of 200 μl of solid matrigel mixture containing TEC (BD bioscience) in serum free medium 28 with exogenous GDNF 10 ng ml^−1 (R&D system), GFR^+ 75 ng ml^−1 (R&D system) and FGF2 1 ng ml^−1 (BD Biosciences). Average GFP^+ SSC colony area was measured and GFP^+ SSC cell number were counted 8 days after plating. Each condition was performed in triplicate.
FIG. 4. a. Quantication of GDNF levels by ELISA in conditioned media from TECs isolated from Fgfr1+/+ or Fgfr1−/− mice. Bar=1 cm. b. Images of testes from busulfan-treated (45 mgkg-1) WT mice 12 weeks post transplantation with PBS(Φ), Fgfr1+/+ TECs or Fgfr1/−/− TECs. Testis weights are indicated on the right (n=4). c. H&E images of testis sections from control (Fgfr1+/+) or endothelialspecic deletion of Fgfr1 (Fgfr1iΔEC/iΔEC) mice at 12 weeks after tamoxifen treatment to induce fgfr1 deletion from ECs. Red stars indicate empty seminiferous tubule. Bar=100 μm. d. Representative bright-eld and GFP images of GFP+ SSCs co-cultured with TECs with the addition of FGF±GDNF at the indicated concentrations after 4 weeks. SSC colony number and size over time are shown on right. e. Immunouorescence images of testis sections from Fgfr1+/+ or Fgfr1iΔEC/iΔEC mice 5 weeks after busulfan treatment at the indicated concentrations. […]

EGR-1 [2] = assay: Western blot of EGR-1 expression in LuECs; assay type: cell-based, mouse; settings: LuEC
Text: as §1

DS-iPS EC = assay: GDNF ELISA in conditioned media from Down syndrome iPS-derived ECs; assay type: cell-based, human; settings: 2 ng/ml FGF-2
Description: as §2, §3

EGR-1 [3] = assay: EGR-1 expression in DS-iPS EC; assay type: cell-based, human

Substance: fibroblast growth factor-2 [FGF-2]
- EGR-1 expression after FGF-2 treatment (EGR-1 [1]): increased EGR-1 expression
- GDNF production after FGF2 treatment (C-iPS EC): stimulated robust GDNF production
- SSC colony formation (number and size of colonies) (Thy1.2+GFP+ SSCs): sufficient for SSC maintenance and expansion
- EGR-1 expression after FGF-2 treatment (EGR-1 [2]): not
- GDNF production after FGF2 treatment (DS-iPS EC): relatively modest induction of GDNF
- EGR-1 expression after FGF treatment (EGR-1 [3]): minimal EGR-1 expression
